Experimental findings from patent US20250248973A1, “CANNABINOID RECEPTOR 1 ANTAGONISTS/INVERSE AGONISTS AND USES THEREOF” (Corbus Pharmaceuticals, Inc., priority 2022, published 2025) are described below.

The structures appear in SMILES notation.

In assay [1] the target is Human CB1 Receptor-1b (hCB1b) (Homo sapiens (Human), UniProt P21554). Nature of the assay: hCB1b Gai cyclic AMP (cAMP) TR-FRET assay, antagonism of EC80 CP55940 with forskolin. Format: cell-based. The note with it: hCB1b cells, 30 min pre-incubation, read-out: CB1b IC50. On the procedure:
(§1) Example 3. Biochemical Methods Human CB1 Receptor-1 (hCB1) and Human CB1 Receptor-1b (hCBib)
(§2) hCB1/hCB1 b Gai Cyclic AMP (cAMP) Assays: Cells were seeded in a 384-well plate at an appropriate density from frozen cells. The cAMP assays were performed according to the manufacturer's protocol using MULTISCREEN™ TR-FRET cAMP 1.0 No Wash Assay Kit. Cells (hCB1 or hCB1 b) were pre-incubated with customer compounds for 30 minutes at rt followed by addition of EC80 CP55940 concentration and Forskolin. Cells were then incubated for 20 minutes at 37C. The reaction was terminated by sequentially adding sequentially adding MULTISCREEN™ Eu-labeled cAMP and MULTISCREEN™ 650-labeled anti-cAMP antibody in lysis buffer. The plate was then incubated at rt for 30 minutes before reading fluorescent emissions at 620 nm and 665 with excitation at 314 nm on FlexStation III (Molecular Devices). The results are shown in Table 2 (“***” denotes an IC50<100 nM; “**” denotes an IC50 between 100 nM and 500 nM, and “*” denotes an IC50>500 nM).
On the technique in general: TR-FRET usually uses a lanthanide donor and a delayed reading to cut background.

The target in assay [2] is Human CB1 Receptor-1 (hCB1) (Homo sapiens (Human), UniProt P21554). The experiment in a line: hCB1 Gai cyclic AMP (cAMP) TR-FRET assay, antagonism of EC80 CP55940 with forskolin. Format: cell-based. Conditions: hCB1 cells, 30 min pre-incubation. On the procedure:
as §1, §2

Chain of Human CB1 Receptor-1 (hCB1) (P21554 whole entry): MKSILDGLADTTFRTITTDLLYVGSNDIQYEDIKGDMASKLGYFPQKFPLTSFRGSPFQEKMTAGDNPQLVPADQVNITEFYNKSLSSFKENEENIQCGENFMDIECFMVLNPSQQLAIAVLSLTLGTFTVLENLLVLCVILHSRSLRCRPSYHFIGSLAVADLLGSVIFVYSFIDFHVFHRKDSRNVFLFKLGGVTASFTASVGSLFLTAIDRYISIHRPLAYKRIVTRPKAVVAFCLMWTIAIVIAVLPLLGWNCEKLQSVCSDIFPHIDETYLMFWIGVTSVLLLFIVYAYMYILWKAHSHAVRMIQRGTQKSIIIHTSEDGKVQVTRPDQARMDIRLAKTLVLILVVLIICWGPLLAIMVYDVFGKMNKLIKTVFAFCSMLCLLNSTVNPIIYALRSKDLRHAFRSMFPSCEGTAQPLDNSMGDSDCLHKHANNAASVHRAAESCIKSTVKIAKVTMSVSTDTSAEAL
Chain of Human CB1 Receptor-1b (hCB1b) (P21554 other isoform, or with tags, fused parts or gaps): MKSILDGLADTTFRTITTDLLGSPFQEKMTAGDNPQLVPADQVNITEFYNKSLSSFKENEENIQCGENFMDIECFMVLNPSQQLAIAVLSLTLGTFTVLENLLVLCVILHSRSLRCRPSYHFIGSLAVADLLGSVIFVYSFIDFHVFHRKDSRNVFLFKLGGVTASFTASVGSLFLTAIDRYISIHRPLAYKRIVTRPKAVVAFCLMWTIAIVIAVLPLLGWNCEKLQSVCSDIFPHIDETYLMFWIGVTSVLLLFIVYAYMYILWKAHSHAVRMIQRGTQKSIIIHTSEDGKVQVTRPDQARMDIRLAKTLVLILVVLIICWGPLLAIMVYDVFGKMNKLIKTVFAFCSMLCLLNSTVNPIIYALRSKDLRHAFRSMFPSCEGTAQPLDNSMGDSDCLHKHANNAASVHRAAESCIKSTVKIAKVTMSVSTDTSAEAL

For `C[C@H](CN/C(=N\S(=O)(=O)c1ccc(C(F)(F)F)cc1)N1C[C@H](c2ccccc2)C(c2ccc(F)cc2)=N1)S(N)(=O)=O` (single isomer, unassigned) [Compound 47], the IC50 in assay [1] and in assay [2] was under 100 nM each time.

With `C[C@@H](CN/C(=N\S(=O)(=O)c1ccc(C(F)(F)F)cc1)N1C[C@H](c2ccccc2)C(c2ccc(F)cc2)=N1)S(N)(=O)=O` (single isomer, unassigned) [Compound 48], the IC50 in assay [1] and in assay [2] was under 100 nM throughout.

As for `C[C@@H](CS(N)(=O)=O)NC(=NS(=O)(=O)c1ccc(Cl)cc1)N1C[C@H](c2ccccc2)C(c2ccc(F)cc2)=N1` (single isomer, unassigned) [Compound 61], the IC50 in assay [1] and in assay [2] was 100 to 500 nM in each case.

Consider `NS(=O)(=O)[C@H]1C[C@H](N/C(=N/S(=O)(=O)c2ccc(Cl)cc2)N2C[C@H](c3ccccc3)C(c3ccc(Cl)cc3)=N2)C1` (single isomer, unassigned) [Compound 115], for which the half-inhibitory concentration (IC50) in assay [1] and in assay [2] was under 100 nM each time.

For `NS(=O)(=O)[C@H]1C[C@@H](N/C(=N/S(=O)(=O)c2ccc(Cl)cc2)N2C[C@H](c3ccccc3)C(c3ccc(Cl)cc3)=N2)C1` (single isomer, unassigned) [Compound 116], the IC50 in assay [1] and in assay [2] was 100 to 500 nM throughout.

In the case of `NS(=O)(=O)[C@H]1CC[C@@H](N/C(=N/S(=O)(=O)c2ccc(Cl)cc2)N2C[C@H](c3ccccc3)C(c3ccc(Cl)cc3)=N2)CC1` (single isomer, unassigned) [Compound 119], the 50% inhibitory concentration (IC50) in assay [1] and in assay [2] was over 500 nM throughout.

For `NS(=O)(=O)[C@H]1CC[C@H](N/C(=N/S(=O)(=O)c2ccc(Cl)cc2)N2C[C@@H](c3ccccc3)C(c3ccc(Cl)cc3)=N2)CC1` (single isomer, unassigned) [Compound 122], the IC50 in assay [1] and in assay [2] was 100 to 500 nM throughout.

Regarding `NS(=O)(=O)[C@H]1CC[C@@H](N/C(=N/S(=O)(=O)c2ccc(Cl)cc2)N2C[C@H](c3ccccc3)C(c3ccc(F)cc3)=N2)CC1` (single isomer, unassigned) [Compound 123], the IC50 in assay [1] and in assay [2] was over 500 nM in each case.

As for `NS(=O)(=O)[C@H]1CC[C@H](N/C(=N/S(=O)(=O)c2ccc(Cl)cc2)N2C[C@H](c3ccccc3)C(c3ccc(F)cc3)=N2)CC1` (single isomer, unassigned) [Compound 125], the 50% inhibitory concentration (IC50) in assay [1] and in assay [2] was 100 to 500 nM in each case.

Regarding `NS(=O)(=O)[C@H]1C[C@H](N/C(=N/S(=O)(=O)c2ccc(Cl)cc2)N2C[C@H](c3ccccc3)C(c3ccc(F)cc3)=N2)C1` (single isomer, unassigned) [Compound 127], the IC50 in assay [1] and in assay [2] was 100 to 500 nM throughout.

With `NS(=O)(=O)[C@H]1C[C@@H](N/C(=N/S(=O)(=O)c2ccc(Cl)cc2)N2C[C@H](c3ccccc3)C(c3ccc(F)cc3)=N2)C1` (single isomer, unassigned) [Compound 129], the IC50 in assay [1] and in assay [2] was over 500 nM throughout.

On to `NS(=O)(=O)[C@H]1CCN(/C(=N/S(=O)(=O)c2ccc(Cl)cc2)N2C[C@H](c3ccccc3)C(c3ccc(Cl)cc3)=N2)C1` (single isomer, unassigned) [Compound 135], for which the IC50 in assay [1] and in assay [2] was over 500 nM each time.

With `NS(=O)(=O)[C@@H]1CCN(/C(=N/S(=O)(=O)c2ccc(Cl)cc2)N2C[C@H](c3ccccc3)C(c3ccc(Cl)cc3)=N2)C1` (single isomer, unassigned) [Compound 136], the half-maximal inhibitory concentration (IC50) in assay [1] and in assay [2] was over 500 nM throughout.

Consider `NS(=O)(=O)[C@H]1CC[C@H](N/C(=N/S(=O)(=O)c2ccc(Cl)cc2)N2C[C@H](c3ccccc3)C(c3ccc(Cl)cc3)=N2)C1` (single isomer, unassigned) [Compound 139], for which the IC50 in assay [1] and in assay [2] was 100 to 500 nM each time.

Consider `NS(=O)(=O)[C@@H]1CC[C@@H](N/C(=N/S(=O)(=O)c2ccc(Cl)cc2)N2C[C@H](c3ccccc3)C(c3ccc(Cl)cc3)=N2)C1` (single isomer, unassigned) [Compound 141], for which the IC50 in assay [1] and in assay [2] was 100 to 500 nM each time.

Turning to `NS(=O)(=O)[C@H]1CC[C@@H](N/C(=N/S(=O)(=O)c2ccc(Cl)cc2)N2C[C@H](c3ccccc3)C(c3ccc(Cl)cc3)=N2)C1` (single isomer, unassigned) [Compound 145], the IC50 in assay [1] and in assay [2] was 100 to 500 nM each time.

As for `NS(=O)(=O)O[C@H]1C[C@@H](N/C(=N\S(=O)(=O)c2ccc(Cl)cc2)N2C[C@@H](c3ccccc3)C(c3ccc(Cl)cc3)=N2)C1` (single isomer, unassigned) [Compound 226], the 50% inhibitory concentration (IC50) was under 100 nM in assay [1] and over 500 nM in assay [2].

On to `NS(=O)(=O)N[C@H]1C[C@H](N/C(=N\S(=O)(=O)c2ccc(Cl)cc2)N2C[C@H](c3ccccc3)C(c3ccc(Cl)cc3)=N2)C1` (single isomer, unassigned) [Compound 241], for which the IC50 is under 100 nM in assay [1] and 100 to 500 nM in assay [2].

As to `NS(=O)(=O)N[C@H]1C[C@@H](N/C(=N\S(=O)(=O)c2ccc(C(F)(F)F)cc2)N2C[C@H](c3ccccc3)C(c3ccc(Cl)cc3)=N2)C1` (single isomer, unassigned) [Compound 245], the IC50 in assay [1] was under 100 nM; in assay [2] it was 100 to 500 nM.

Regarding `C[C@@H](CS(N)(=O)=O)N/C(=N\S(=O)(=O)c1ccc(Cl)cc1)N1CC(c2ccccc2)C(c2ccc(Cl)cc2)=N1` (stereo in doubt) [Compound 1, (R,E)-3-(4-chlorophenyl)-N′-((4-chlorophenyl)sulfonyl)-4-phenyl-N-((S)-1-sulfamoylpropan-2-yl)-4,5-dihydro-1H-pyrazole-1-carboximidamide], the IC50 in assay [1] and in assay [2] was under 100 nM in each case.

On to `C[C@H](CS(N)(=O)=O)N/C(=N\S(=O)(=O)c1ccc(Cl)cc1)N1CC(c2ccccc2)C(c2ccc(Cl)cc2)=N1` (stereo in doubt) [Compound 3, (R,E)-3-(4-chlorophenyl)-N′-((4-chlorophenyl)sulfonyl)-4-phenyl-N-((R)-1-sulfamoylpropan-2-yl)-4,5-dihydro-1H-pyrazole-1-carboximidamide], for which the 50% inhibitory concentration (IC50) was 100 to 500 nM in assay [1] and over 500 nM in assay [2].

As to `C[C@H](CN/C(=N\S(=O)(=O)c1ccc(Cl)cc1)N1C[C@H](c2ccccc2)C(c2ccc(Cl)cc2)=N1)S(N)(=O)=O` [Compound 5, (S,E)-3-(4-chlorophenyl)-N′-((4-chlorophenyl)sulfonyl)-4-phenyl-N-((R)-2-sulfamoylpropyl)-4,5-dihydro-1H-pyrazole-1-carboximidamide], the concentration for half-maximal inhibition (IC50) in assay [1] was 100 to 500 nM; in assay [2], under 100 nM.

As to `C[C@@H](CN/C(=N\S(=O)(=O)c1ccc(Cl)cc1)N1C[C@H](c2ccccc2)C(c2ccc(Cl)cc2)=N1)S(N)(=O)=O` [Compound 6, (S,E)-3-(4-chlorophenyl)-N′-((4-chlorophenyl)sulfonyl)-4-phenyl-N-((S)-2-sulfamoylpropyl)-4,5-dihydro-1H-pyrazole-1-carboximidamide], the figures for the IC50 in assay [1] and in assay [2] were under 100 nM and 100 to 500 nM, respectively.

On to `NS(=O)(=O)CCN/C(=N\S(=O)(=O)c1ccc(F)cc1)N1C[C@H](c2ccccc2)C(c2ccc(Cl)cc2)=N1` [Compound 11, (S,E)-3-(4-chlorophenyl)-N′-((4-fluorophenyl)sulfonyl)-4-phenyl-N-(2-sulfamoylethyl)-4,5-dihydro-1H-pyrazole-1-carboximidamide], for which the IC50 in assay [1] and in assay [2] was under 100 nM in each case.

In the case of `C[C@@H](CN/C(=N\S(=O)(=O)c1ccc(F)cc1)N1C[C@H](c2ccccc2)C(c2ccc(Cl)cc2)=N1)S(N)(=O)=O` [Compound 13, (S,E)-3-(4-chlorophenyl)-N′-((4-fluorophenyl)sulfonyl)-4-phenyl-N-((S)-2-sulfamoylpropyl)-4,5-dihydro-1H-pyrazole-1-carboximidamide], the IC50 in assay [1] and in assay [2] was under 100 nM in each case.

With `C[C@H](CN/C(=N\S(=O)(=O)c1ccc(F)cc1)N1C[C@H](c2ccccc2)C(c2ccc(Cl)cc2)=N1)S(N)(=O)=O` [Compound 14, (S,E)-3-(4-chlorophenyl)-N′-((4-fluorophenyl)sulfonyl)-4-phenyl-N-((R)-2-sulfamoylpropyl)-4,5-dihydro-1H-pyrazole-1-carboximidamide], the IC50 in assay [1] and in assay [2] was under 100 nM in each case.

In turn, `C#Cc1ccccc1S(=O)(=O)N=C(NCCS(N)(=O)=O)N1C[C@H](c2ccccc2)C(c2ccc(Cl)cc2)=N1` [Compound 33, (S)-3-(4-chlorophenyl)-N′-((2-ethynylphenyl)sulfonyl)-4-phenyl-N-(2-sulfamoylethyl)-4,5-dihydro-1H-pyrazole-1-carboximidamide] returned an IC50 in assay [2] of 100 to 500 nM.

`NS(=O)(=O)O[C@H]1C[C@@H](N/C(=N\S(=O)(=O)c2ccc(C(F)(F)F)cc2)N2C[C@H](c3ccccc3)C(c3ccc(Cl)cc3)=N2)C1` [Compound 227, (1R,3s)-3-((S,E)-3-(4-chlorophenyl)-4-phenyl-N′-((4-(trifluoromethyl)phenyl)sulfonyl)-4,5-dihydro-1H-pyrazole-1-carboximidamido)cyclobutyl sulfamate] came in with an IC50 in assay [2] of 100 to 500 nM.

The term IC50 denotes the concentration needed to halve the response being measured.
